Measurements taken from the CheMixHub viscosity set.

Assay: xn = mol fraction of the nth substance listed

C=CC#N + CCCCCO
viscosity [mPa·s], 101.33 kPa
Conditions	x1 = 0.1032	x1 = 0.2077	x1 = 0.3006	x1 = 0.4053	x1 = 0.5035	x1 = 0.6091	x1 = 0.7025	x1 = 0.8042	x1 = 0.9004
298.15 K	2.405	1.777	1.384	1.064	0.847	0.668	0.558	0.464	0.401
303.15 K	2.107	1.58	1.24	0.965	0.774	0.619	0.52	0.436	0.382
308.15 K	1.86	1.413	1.122	0.879	0.715	0.577	0.488	0.416	0.364

CCC(C)(C)O + CCCCCO
viscosity [mPa·s], 101 kPa
Conditions	298.15 K	318.15 K
x2 = 0.051	3.666	1.715
x2 = 0.1017	3.812	1.782
x2 = 0.2023	4.096	1.867
x2 = 0.3041	4.309	1.974
x2 = 0.4034	4.432	2.058
x2 = 0.4972	4.456	2.122
x2 = 0.5939	4.415	2.167
x2 = 0.6991	4.251	2.195
x2 = 0.8003	4.112	2.187
x2 = 0.9012	3.939	2.174
x2 = 0.9496	3.831	2.161

CCCCN(CCCC)CCCC + CCCCCO
viscosity [mPa·s], 101.3 kPa
Conditions	x1 = 0.0945	x1 = 0.1881	x1 = 0.2845	x1 = 0.3843	x1 = 0.4829	x1 = 0.6148	x1 = 0.7041	x1 = 0.798	x1 = 0.8912
303.15 K	2.622	2.405	2.18	1.961	1.786	1.581	1.458	1.365	1.262
313.15 K	2.122	1.91	1.714	1.551	1.415	1.266	1.188	1.118	1.054

CN(C)c1ccccc1 + CCCCCO
303.15 K, 101 kPa
Conditions	viscosity [mPa·s]
x1 = 0.0799	2.75
x1 = 0.121	2.704
x1 = 0.2034	2.605
x1 = 0.2784	2.506
x1 = 0.3584	2.392
x1 = 0.4284	2.284
x1 = 0.5047	2.158
x1 = 0.5722	2.039
x1 = 0.6406	1.913
x1 = 0.7103	1.777
x1 = 0.781	1.635
x1 = 0.8168	1.562
x1 = 0.9058	1.374

C=CC#N + CCCCO
viscosity [mPa·s], 101.33 kPa
Conditions	x1 = 0.1054	x1 = 0.2059	x1 = 0.305	x1 = 0.4063	x1 = 0.5073	x1 = 0.6039	x1 = 0.6962	x1 = 0.8074	x1 = 0.9006
298.15 K	1.797	1.363	1.065	0.849	0.69	0.581	0.499	0.429	0.386
303.15 K	1.596	1.221	0.965	0.776	0.637	0.539	0.468	0.407	0.369
308.15 K	1.424	1.102	0.881	0.714	0.594	0.505	0.442	0.385	0.352

CC(=O)CC(C)=O + CCCCO
303.15 K, 101 kPa
Conditions	viscosity [mPa·s]
x1 = 0.0509	1.941
x1 = 0.1003	1.7
x1 = 0.3007	1.142
x1 = 0.5004	0.887
x1 = 0.7	0.751
x1 = 0.8998	0.692
x1 = 0.9504	0.678

CC(C)(C)Br + CCCCO
viscosity [mPa·s], 101.3 kPa
Conditions	x1 = 0.0518	x1 = 0.106	x1 = 0.2079	x1 = 0.3109	x1 = 0.4067	x1 = 0.5054	x1 = 0.6023	x1 = 0.7004	x1 = 0.7993	x1 = 0.901
298.15 K	2.264	2.002	1.638	1.377	1.203	1.055	0.9468	0.8591	0.7905	0.7428
313.15 K	1.575	1.41	1.19	1.02	0.9075	0.8127	0.7355	0.6723	0.6264	0.5951

CCCCN(CCCC)CCCC + CCCCO
viscosity [mPa·s]
Conditions	303.15 K	313.15 K
101 kPa, x1 = 0.007767	2.245	–
101 kPa, x1 = 0.01457	2.236	–
101 kPa, x1 = 0.02285	2.226	–
101 kPa, x1 = 0.03362	2.211	–
101 kPa, x1 = 0.04436	2.197	–
101 kPa, x1 = 0.04946	2.191	–
101 kPa, x1 = 0.05954	2.178	–
101 kPa, x1 = 0.07271	2.16	–
101 kPa, x1 = 0.08924	2.138	–
101.3 kPa, x1 = 0.0942	2.159	1.71
101.3 kPa, x1 = 0.1897	2.028	1.608
101.3 kPa, x1 = 0.3149	1.877	1.481
101.3 kPa, x1 = 0.4192	1.766	1.393
101.3 kPa, x1 = 0.5187	1.65	1.311
101.3 kPa, x1 = 0.618	1.542	1.231
101.3 kPa, x1 = 0.7149	1.448	1.154
101.3 kPa, x1 = 0.8007	1.365	1.102
101.3 kPa, x1 = 0.9031	1.256	1.047

CCCCOC(=O)c1ccccc1C(=O)OCCCC + CCCCO
303.15 K, 101.33 kPa
Conditions	viscosity [mPa·s]
x1 = 0.1016	2.585
x1 = 0.1991	3.095
x1 = 0.2997	3.757
x1 = 0.4016	4.553
x1 = 0.5004	5.431
x1 = 0.5969	6.463
x1 = 0.6966	7.645
x1 = 0.8044	9.216
x1 = 0.8662	10.27

CN(C)c1ccccc1 + CCCCO
303.15 K, 101 kPa
Conditions	viscosity [mPa·s]
x1 = 0.0489	2.2
x1 = 0.0742	2.187
x1 = 0.1249	2.156
x1 = 0.1802	2.12
x1 = 0.2362	2.079
x1 = 0.265	2.056
x1 = 0.2944	2.032
x1 = 0.3549	1.978
x1 = 0.419	1.915
x1 = 0.4854	1.844
x1 = 0.5905	1.722
x1 = 0.7423	1.526
x1 = 0.9099	1.295

C=CC#N + CCCCOC(C)=O
viscosity [mPa·s]
Conditions	298.15 K	303.15 K	308.15 K
101.3 kPa, x1 = 0.0988	–	0.6248	–
101.3 kPa, x1 = 0.2033	–	0.5998	–
101.3 kPa, x1 = 0.3022	–	0.5737	–
101.3 kPa, x1 = 0.401	–	0.5437	–
101.3 kPa, x1 = 0.4962	–	0.5133	–
101.3 kPa, x1 = 0.5941	–	0.4775	–
101.3 kPa, x1 = 0.6991	–	0.4364	–
101.3 kPa, x1 = 0.7966	–	0.3951	–
101.3 kPa, x1 = 0.8992	–	0.3527	–
101.33 kPa, x1 = 0.099	0.651	0.607	0.571
101.33 kPa, x1 = 0.1971	0.626	0.582	0.547
101.33 kPa, x1 = 0.2999	0.596	0.553	0.522
101.33 kPa, x1 = 0.404	0.561	0.524	0.494
101.33 kPa, x1 = 0.5006	0.526	0.49	0.464
101.33 kPa, x1 = 0.5992	0.488	0.458	0.433
101.33 kPa, x1 = 0.7004	0.449	0.421	0.398
101.33 kPa, x1 = 0.8014	0.412	0.384	0.365
101.33 kPa, x1 = 0.9031	0.374	0.349	0.33
